Values of other authors in patent US20210268001A1, “USE OF MIOTIC C[…] F2a PRO[…] FOR PREVENTION AND TREATMENT OF MYOPIA” (priority 2018, published 2021).

Tests used:
[1] = test system: corneal epithelium epithelial cells
cholinergic receptors = test system: cholinergic receptors; parameters: unit not given here; conditions: reversible acetylcholinesterase inhibitors

SMILES | cytotoxic effect on epithelial cells ([1]; high concentration of NO (100 mM NaNO2), over the same period (6 hs)) | viability of epithelial cells ([1]; low concentrations of NO (1 nM to 1 mM NaNO2), 6 hs after application) | action time (cholinergic receptors)
O=N[O-].[Na+] [NaNO2] | cytotoxic effect | significantly increased | –
COc1cc2c(cc1OC)C(=O)C(CC1CCN(Cc3ccccc3)CC1)C2 (stereo not shown) [donepezil] | – | – | one to two
CC[N+](C)(C)c1cccc(O)c1 [edrophonium] | – | – | one to two
CN(C)C(=O)Oc1cccc([N+](C)(C)C)c1 [neostigmine] | – | – | one to two
CN(C)C(=O)Oc1ccc[n+](C)c1 [pyridostigmine] | – | – | one to two
CCN(C)C(=O)Oc1cccc([C@H](C)N(C)C)c1 [rivastigmine] | – | – | one to two
